In the METLIN SMRT retention time set (Domingo-Almenara et al. 2019):

Experiment: gradient 5% acetonitrile 3 min, to 50% in 2 min, to 85% in 15 min, held 3 min, 100 µL/min
Conditions: column: Zorbax Extend-C18 2.1 x 50 mm; eluents: water / acetonitrile, 0.1% formic acid
Outline: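 Mixtures of ~100 pure standards were chromatographed on a Zorbax Extend-C18 column (2.1 × 50 mm, 1.8 μm) at 100 μL/min using water and acetonitrile, each with 0.1% formic acid. Detection used a quadrupole time-of-flight mass spectrometer in positive and negative ionization mode, and data collection spanned 3 months. Retention time was obtained from adduct peaks picked computationally and each checked manually.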

## CNC(=O)C1CCCN(c2nc3ncn(CC(=O)Nc4ccc(F)cc4Cl)c(=O)c3s2)C1 (configuration not stated)
  RP-LC retention time: 650 s

## COc1cccc(Nc2c(-c3ccc(Cl)cc3)nc3cnccn23)c1
  RP-LC retention time: 961 s

## CCCN(CCC)S(=O)(=O)c1cc(-c2nnc(C)o2)co1
  RP-LC retention time: 897 s

## COc1ccc(Nc2cc(C)nc(N)n2)cc1
  RP-LC retention time: 644 s

## Cc1ccccc1CNC(=O)CC1CCN(C(=O)c2[nH]c(C)c(C(=O)OC(C)C)c2C)CC1
  RP-LC retention time: 853 s

## COc1cccc(-c2nnc(Cc3nc(-c4ccc5c(c4)OCO5)no3)o2)c1
  RP-LC retention time: 977 s

## O=C(CN(C(=O)c1ccc(F)c(Cl)c1)C1CCCCC1)N1CCNCC1
  RP-LC retention time: 659 s

## O=C(c1cn2ccccc2n1)N1CCN(c2ccc(Cl)cc2)CC1
  RP-LC retention time: 709 s

## Cc1cc(C)n(-c2ccnc(N3CCN(c4ccccc4F)CC3)n2)n1
  RP-LC retention time: 1220 s

## COc1cccc(CN2CC=C(C(=O)N3CCN(c4ccccc4OC)CC3)CC2)c1
  RP-LC retention time: 651 s

## O=S(=O)(c1ccc2nc(N3CCN(c4ccccc4)CC3)ccc2c1)N1CCCCC1
  RP-LC retention time: 1030 s

## CC1CCCN(CCCNC(=O)c2cccc3c2SCCC3=O)C1 (configuration not stated)
  RP-LC retention time: 590 s

## NC(=O)c1cccc(-c2cc(Nc3ccc(OC(F)(F)F)cc3)ncn2)c1
  RP-LC retention time: 765 s

## Cc1cc(C)c2c(N3CCOCC3)nc(C(=O)NCc3ccc(F)cc3F)nc2n1
  RP-LC retention time: 651 s

## O=C(Nc1nc(C(=O)N2CCN(C(=O)c3ccco3)CC2)co1)c1ccsc1
  RP-LC retention time: 656 s

## Cc1[nH]c(C)c(S(=O)(=O)N2CCC(C(=O)NC3CC3)CC2)c1C(=O)N1CCCCC1
  RP-LC retention time: 630 s

## CC(=O)Nc1nc(-c2ccc(C)cc2C)cs1
  RP-LC retention time: 808 s

## CCCN1CCN(C(=O)Cc2ccc3nc(NC(C)=O)sc3c2)CC1
  RP-LC retention time: 578 s

## CCOc1cccc(-c2noc(Cn3ccnc3C)n2)c1
  RP-LC retention time: 647 s

## CCc1noc(C2(NC(=O)c3ccccc3Cl)CCCCC2)n1
  RP-LC retention time: 936 s

## COc1cccc(N2C=C(C(=O)N3CCCC3)S(=O)(=O)c3ccc(F)cc32)c1
  RP-LC retention time: 819 s

## Cc1ccc(Nc2nc(C)cc(N3CCN(C(=O)Nc4ccccc4C)CC3)n2)cc1
  RP-LC retention time: 704 s

## Cc1cccc(-c2noc(-c3sc4ncn(CC(=O)N5CCCC5)c(=O)c4c3C)n2)c1
  RP-LC retention time: 1020 s

## CC(C)c1ccc(S(=O)(=O)N2CCC3(CC2)c2nccn2CCN3C)cc1
  RP-LC retention time: 720 s

## COC(=O)c1cc(S(=O)(=O)N2CCCC2C(=O)Nc2cccc(C#N)c2)cn1C (configuration not stated)
  RP-LC retention time: 826 s

## Cc1cccc(C)c1OCC(=O)N(Cc1ccc(Br)o1)C1CCS(=O)(=O)C1 (configuration not stated)
  RP-LC retention time: 960 s

## O=C(Nc1ccc2c(c1)OCCO2)c1cnc(-c2ccc(F)cc2)nc1-c1ccncc1
  RP-LC retention time: 831 s

## Cc1ccsc1CN1CCc2[nH]nc(C(=O)N3CCOCC3)c2C1
  RP-LC retention time: 568 s

## O=C(Cn1nc2nc(N3CCCC3)ccn2c1=O)N1CCN(c2ccccc2F)CC1
  RP-LC retention time: 691 s

## Cc1ccccc1-c1nnc(COc2ccc(NC(=O)C3CCC3)cc2)o1
  RP-LC retention time: 885 s

## O=S(=O)(Nc1ccc(F)cc1)c1cccc2cccnc12
  RP-LC retention time: 792 s

## Cc1cc(C2CCCN2C(=O)Nc2ccccc2C)no1 (configuration not stated)
  RP-LC retention time: 757 s

## CCNc1cc(N2CCC(CCC(=O)NC(C)C)CC2)ncn1
  RP-LC retention time: 598 s

## CCc1ccc2[nH]c3c(c(=O)c2c1)CN(CC(=O)Nc1cc(OC)cc(OC)c1)CC3
  RP-LC retention time: 642 s

## COc1ccc(CNC(=O)c2cn3cccc(C)c3n2)cc1OC
  RP-LC retention time: 604 s

## Cc1cc(C)cc(N2CCC(NC(=O)Cc3ccc(F)cc3)C2=O)c1 (configuration not stated)
  RP-LC retention time: 864 s

## CCCc1ccc(S(=O)(=O)N2CCC3(CC2)NCCN=C3NCc2ccc(OC)cc2)cc1
  RP-LC retention time: 826 s

## CCN1C(=O)c2cccnc2Sc2cc(NC(=O)c3cc(C)cc(C)c3)ccc21
  RP-LC retention time: 918 s

## Cc1ccc(Cl)cc1NC(=O)C1CCCN(c2nc3ccccc3nc2C(F)(F)F)C1 (configuration not stated)
  RP-LC retention time: 1350 s

## Cc1cc(C)c(NC(=O)Cn2c(=O)cc(-c3nc(C4CC4)no3)c3ccccc32)c(C)c1
  RP-LC retention time: 999 s

## O=C(c1nc(-c2ccnc(N3CCCCC3)c2)no1)N1CCN(C2CCCCC2)CC1
  RP-LC retention time: 609 s

## CC(C)N(C(=O)Cn1c(CNC(=O)c2ccco2)nc2ccccc21)c1ccccc1
  RP-LC retention time: 698 s

## O=C(Cc1nnc(-c2cccc(Br)c2)o1)NCc1ccc(F)cc1Cl
  RP-LC retention time: 869 s

## Cc1oc(-c2ccccc2)nc1Cc1noc(Cc2ccc(F)cc2)n1
  RP-LC retention time: 1090 s

## O=C(c1ccccc1F)N1CCC(n2nc(-c3ccsc3)ccc2=O)CC1
  RP-LC retention time: 783 s

## CCOC(=O)Cc1sc(Nc2c(C)n[nH]c2C)nc1-c1ccccc1
  RP-LC retention time: 688 s

## O=C(CN1CCC(c2nc(-c3ccc(F)cc3)no2)CC1)NC1CCCC1
  RP-LC retention time: 678 s

## CCC(C)n1c(=O)c2ccccc2n(Cc2nc(-c3ccc(Cl)cc3)no2)c1=O (configuration not stated)
  RP-LC retention time: 1280 s

## C=CCN1C(=O)COc2ccc(-c3nc(NC(=O)c4ccccc4)sc3C)cc21
  RP-LC retention time: 1040 s

## O=C(NCC1CCCO1)c1c[nH]c2ncccc12 (configuration not stated)
  RP-LC retention time: 589 s

## CCOc1nccnc1NC1CCN(C(=O)Cc2cccs2)CC1
  RP-LC retention time: 740 s

## N#Cc1cccc(-c2nc(-c3ccc4c(c3)ncn4CCN3CCCCC3)no2)c1
  RP-LC retention time: 632 s

## COC(=O)C1=CN(CC(=O)N2CCN(c3ccc(F)cc3)CC2)S(=O)(=O)N=C1C
  RP-LC retention time: 878 s

## CCOc1ccc(NC(=O)Cn2cnc3cc4c(cc32)OCCO4)cc1
  RP-LC retention time: 661 s

## CCCc1noc(-c2cccnc2N2CCCN(Cc3cccc(F)c3)CC2)n1
  RP-LC retention time: 722 s

## Cc1noc(-c2cc(=O)n(CC(=O)Nc3ccc(N(C)C)cc3)c3ccccc23)n1
  RP-LC retention time: 650 s

## CC(C(=O)NCCN(C)C)C1CCN(C(=O)c2cc3cc(Cl)ccc3[nH]2)CC1 (configuration not stated)
  RP-LC retention time: 649 s

## CCn1c(=O)c2ccccc2n(CC(=O)N2CCC(C(N)=O)CC2)c1=O
  RP-LC retention time: 601 s

## Cc1ccc(C)c(N2CCN(c3ccnc(SCC(=O)Nc4cccc(Cl)c4C)n3)CC2)c1
  RP-LC retention time: 1020 s

## CNC(=O)[C@@H]1CN(C(=O)c2noc(C)c2COC)C[C@H]1c1nc(C)no1
  RP-LC retention time: 619 s

## CCN1C(=O)C2(CCN(C(=O)NCCC(C)C)CC2)c2ccccc21
  RP-LC retention time: 854 s

## CCCCN1CC(=O)N(c2ccc(OC)cc2)[C@@H]2CS(=O)(=O)C[C@@H]21
  RP-LC retention time: 719 s

## COc1cc(CN2CC(Oc3ccc(-c4noc(-c5ccncc5)n4)cc3)C2)cc(OC)c1
  RP-LC retention time: 728 s

## Cc1ccc(OCC(=O)NC[C@@]23CCC[C@H]2N(C)C(=O)CC3)cc1
  RP-LC retention time: 674 s

## CCc1ccc(CNC(=O)C2CC(=O)N(c3ccc4oc(C)nc4c3)C2)cc1 (configuration not stated)
  RP-LC retention time: 671 s

## O=C(CCCCCCC(=O)Nc1ccc(F)cc1)NO
  RP-LC retention time: 628 s

## CNC(=O)[C@@H]1CN(C(=O)CCc2nc3ccccc3s2)C[C@H]1c1n[nH]c(C)n1
  RP-LC retention time: 607 s
